# Measurements reported in patent US6835755B1, “Naphthoquinone derivatives and their use in the treatment and control of tuberculosis” (priority 1999, dated 2004).
# System: Mycobacterium tuberculosis sensitive strain (H37Rv)
# Assay: microbe, parasite or virus in culture
# Assay type: cell-based
# Details: for ΔGI values of plant extracts: at MIC, mean ± s.d.
SMILES,ΔGI values of plant extracts (H37Rv sensitive strain ATCC27294),"MIC (Minimal inhibitory concentration) (H37Rv sensitive strain ATCC27294, radiometric method) [µg/mL]",ΔGI values of plant extracts (H37 sensitive strain),"MIC (Mycobacterium tuberculosis, H37RV, H37 sensitive strain, radiometric method) [µg/mL]"
"Cc1cc(O)c2c(c1)C(=O)C=CC2=O [7-methyljuglone, 5-hydroxy-7-methyl-1,4-naphtoquinone]",0 ± 1,50,–,–
"Cc1cc(O)c2c(c1)C(=O)C(c1c(C)cc3c(c1O)C(=O)C=CC3=O)=CC2=O [diospyrin, 5,5′ dihydroxy 7,7′ binaphthoquinone]",–,–,−1 ± 1.41,100
